Assay [1] addresses T1, Monoglyceride lipase (Homo sapiens, UniProt Q99685).
T1 sequence (Q99685 whole entry): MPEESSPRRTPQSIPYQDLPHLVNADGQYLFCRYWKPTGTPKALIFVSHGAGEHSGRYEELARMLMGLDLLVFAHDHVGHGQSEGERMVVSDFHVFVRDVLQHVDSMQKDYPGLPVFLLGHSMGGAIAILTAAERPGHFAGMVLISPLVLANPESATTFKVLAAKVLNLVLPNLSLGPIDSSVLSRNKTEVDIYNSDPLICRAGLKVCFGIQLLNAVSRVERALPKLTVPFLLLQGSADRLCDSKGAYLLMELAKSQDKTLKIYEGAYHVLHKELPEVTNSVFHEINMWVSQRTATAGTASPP
The assay is described as follows: In Vitro Competitive Activity-Based Protein Profiling: Proteomes (human prefrontal cortex or cell membrane fractions) (50 μL, 1.0 mg/mL total protein concentration) were preincubated with varying concentrations of inhibitors at 37° C. After 30 min, FP-Rh or HT-01 (1.0 μL, 50 μM in DMSO) was added and the mixture was incubated for another 30 min at room temperature. Reactions were quenched with SDS loading buffer (15 μL—4×) and run on SDS-PAGE.

Assay [2] concerns the target T2, Monoglyceride lipase (Mus musculus, UniProt O35678).
T2 sequence (O35678 whole entry): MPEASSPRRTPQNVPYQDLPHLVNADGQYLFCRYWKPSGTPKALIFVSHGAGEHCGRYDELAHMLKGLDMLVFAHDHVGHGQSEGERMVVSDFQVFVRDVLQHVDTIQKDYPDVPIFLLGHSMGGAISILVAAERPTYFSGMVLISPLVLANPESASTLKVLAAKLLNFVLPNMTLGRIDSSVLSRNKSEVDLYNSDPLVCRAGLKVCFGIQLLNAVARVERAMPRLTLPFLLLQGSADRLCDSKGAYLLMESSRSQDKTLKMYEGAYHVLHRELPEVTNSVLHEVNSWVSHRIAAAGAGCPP
As to the kind of experiment: Preparation of Mouse Brain Proteomes from Inhibitor Treated Mice: Inhibitors were administered to wild-type C57B1/6J by oral gavage in a vehicle of polyethylene glycol. Each animal was sacrificed 4 h following administration and brain proteomes were prepared and analyzed according to previously established methods (See Niphakis, M. J., et al. (2011) ACS Chem. Neurosci. and Long, J. Z., et al. Nat. Chem. Biol. 5:37-44).

pIC50: −log10 of the molar value.

Take `Cc1c(CN2CCCC23CCN(C(=O)OC(C(F)(F)F)C(F)(F)F)CC3)[nH]c2ccc(Cl)cc12`: the pIC50 on Monoglyceride lipase [1] and at Monoglyceride lipase [2] was greater than 7.00 throughout. On to `O=C(OC(C(F)(F)F)C(F)(F)F)N1CCC2(CCCN2C(=O)c2cc3ccc(F)cc3s2)CC1`, for which, at Monoglyceride lipase [2], the pIC50 was greater than 7.00. `Cc1ccc2cc(C(=O)N3CCCC34CCN(C(=O)OC(C(F)(F)F)C(F)(F)F)CC4)sc2c1` had a pIC50 against Monoglyceride lipase [2] greater than 7.00.

Consider `O=C(OC(C(F)(F)F)C(F)(F)F)N1CCC2(CCCN2Cc2cc3cc(Cl)c(Cl)cc3[nH]2)CC1`, for which the pIC50 at Monoglyceride lipase [1] was greater than 7.00. Same read-out and setting: the same measure for `COCCN(C(=O)C1(c2ncccn2)CC1)C1(C)CCN(C(=O)OC(C(F)(F)F)C(F)(F)F)CC1`: greater than 7.00. On to `COc1cccc2cc(CN3CCCC34CCN(C(=O)OC(C(F)(F)F)C(F)(F)F)CC4)[nH]c12`, for which the pIC50 on Monoglyceride lipase [1] and at Monoglyceride lipase [2] was greater than 7.00 in each case.

For the origin of these results see ChEMBL document CHEMBL5728755, “Spirocycle compounds and methods of making and using same” (2021).
